# Data: ChEMBL document CHEMBL5360614, “Quinoline Thiourea-Based Zinc Ionophores with Antibacterial Activity” (J Med Chem, 2023)
# The source made the active and inactive calls. No cut-off for these calls is given here.
# Tests used:
# Staphylococcus aureus [1] = experiment: In vivo antibacterial activity against Staphylococcus aureus MTCC-96 infected in Balb/c mouse assessed as uniform distribution of sinusoids in liver tissue at 31.6 microM/Kg, iv for 7 days in presence of ZnCl2 by hematoxylin and eosin staining based microscopic analysis; type: functional, organism-based; conditions: time 7.0 day
# Staphylococcus aureus [2] = experiment: In vivo antibacterial activity against Staphylococcus aureus MTCC-96 infected in Balb/c mouse assessed as liver central vein with minimum infiltration at 156.5 microM/Kg, iv for 7 days by hematoxylin and eosin staining based microscopic analysis; type: functional, organism-based; conditions: time 7.0 day
# Lipid bilayer [3] = experiment: (§1) Induction of ionophore activity across EYPC:CHOL (8:2) large unilamellar vesicles assessed as transmembrane anion transport by measuring decrease in fluorescence intensity for HPTS dye preincubated for 3 mins followed by ZnBr2 addition and mesured after 7.5 mins by HPTS dye based fluorescence spectrophotometric analysis; conditions: filed as opener; time 10.5 min
# Lipid bilayer [4] = experiment: as §1, with “cation” for “anion”, “MnCl2” for “ZnBr2”; conditions: time 10.5 min
# Staphylococcus aureus [5] = experiment: Disruption of membrane integrity in Staphylococcus aureus MTCC-96 assessed as increase in fluorescence intensity at 4 to 8 uM by PI staining based fluorescence analysis; type: functional, organism-based; conditions: dose 4-8 µM
# Staphylococcus aureus [6] = experiment: Antibacterial activity against Staphylococcus aureus MTCC-96 assessed as reduction in bacterial growth incubated for 14 to 16 hrs in presence of 100 to 400 uM CaCl2 by microbroth dilution method; type: functional, organism-based; conditions: time 14-16 hrs
# Staphylococcus aureus [7] = experiment: Antibacterial activity against Staphylococcus aureus MTCC-96 assessed as reduction in bacterial growth incubated for 14 to 16 hrs by microbroth dilution method; type: functional; conditions: time 14-16 hrs
# MCF7 = experiment: Cytotoxicity against human MCF7 cells assessed as reduction in cell viability at 1 to 100 uM incubated for 44 hrs by MTT assay; type: toxicity, cell-based; conditions: mcf7, 44 h, dose 1-100 µM
# Erythrocyte = experiment: Hemolytic activity in human Red blood cells assessed as hemolysis rate at 1.6 to 50 uM incubated for 1 to 24 hrs in presence of ZnCl2 by absorbance based analysis; type: toxicity, cell-based; conditions: dose lower 1.6 µM, time lower 1 hrs, dose upper 50 µM, time upper 24 hrs
# Lipid bilayer [8] = experiment: as §1, with “ZnSO4” for “ZnBr2”; conditions: filed as opener; time 10.5 min
# Staphylococcus aureus [9] = experiment: Antibacterial activity against Staphylococcus aureus MTCC-96 assessed as fold reduction in bacterial growth incubated for 14 to 16 hrs in presence of 400 uM ZnCl2 by microbroth dilution method; type: functional; conditions: time 14-16 hrs
# Staphylococcus aureus [10] = experiment: Bactericidal activity against Staphylococcus aureus MTCC-96 at 2 times MIC incubated for 1 hrs in presence of ZnCl2 by time kill assay; type: functional, organism-based
# Staphylococcus aureus [11] = experiment: In vivo antibacterial activity against Staphylococcus aureus MTCC-96 infected in Balb/c mouse assessed as normal architecture of hepatic artery in liver tissue at 31.6 microM/Kg, iv for 7 days in presence of ZnCl2 by hematoxylin and eosin staining based microscopic analysis; type: functional, organism-based; conditions: time 7.0 day
# Lipid bilayer [12] = experiment: as §1, with “Zn(NO3)2” for “ZnBr2”; conditions: filed as opener; time 10.5 min
smiles,measurement,setting,value
FC(F)(F)c1cc(NC(=S)Nc2cccc3ccc(-n4cnc5ccccc54)nc23)cc(C(F)(F)F)c1,Activity,Staphylococcus aureus [1],Active
same,Activity,Staphylococcus aureus [2],Active
same,Activity,Lipid bilayer [3],Active
same,Activity,Lipid bilayer [4],inactive
same,Activity,Staphylococcus aureus [5],inactive
same,Activity,Staphylococcus aureus [6],inactive
same,MIC,Staphylococcus aureus [7],3.13 µM
same,Activity,MCF7,Non-Toxic
same,Activity,Erythrocyte,Non-Toxic
same,Activity,Lipid bilayer [8],Active
same,fold change (FC),Staphylococcus aureus [9],6.65
same,Activity,Staphylococcus aureus [10],Active
same,Activity,Staphylococcus aureus [11],Active
same,Activity,Lipid bilayer [12],Active
